Biological target: human capsaicin receptor (VR1) (Homo sapiens, UniProt Q8NER1)
Assay: Capsaicin receptor binding assay ([3H]RTX competition, VR1-transfected HEK293 membranes)
Settings: not given

human capsaicin receptor (VR1), sequence (Q8NER1 whole entry): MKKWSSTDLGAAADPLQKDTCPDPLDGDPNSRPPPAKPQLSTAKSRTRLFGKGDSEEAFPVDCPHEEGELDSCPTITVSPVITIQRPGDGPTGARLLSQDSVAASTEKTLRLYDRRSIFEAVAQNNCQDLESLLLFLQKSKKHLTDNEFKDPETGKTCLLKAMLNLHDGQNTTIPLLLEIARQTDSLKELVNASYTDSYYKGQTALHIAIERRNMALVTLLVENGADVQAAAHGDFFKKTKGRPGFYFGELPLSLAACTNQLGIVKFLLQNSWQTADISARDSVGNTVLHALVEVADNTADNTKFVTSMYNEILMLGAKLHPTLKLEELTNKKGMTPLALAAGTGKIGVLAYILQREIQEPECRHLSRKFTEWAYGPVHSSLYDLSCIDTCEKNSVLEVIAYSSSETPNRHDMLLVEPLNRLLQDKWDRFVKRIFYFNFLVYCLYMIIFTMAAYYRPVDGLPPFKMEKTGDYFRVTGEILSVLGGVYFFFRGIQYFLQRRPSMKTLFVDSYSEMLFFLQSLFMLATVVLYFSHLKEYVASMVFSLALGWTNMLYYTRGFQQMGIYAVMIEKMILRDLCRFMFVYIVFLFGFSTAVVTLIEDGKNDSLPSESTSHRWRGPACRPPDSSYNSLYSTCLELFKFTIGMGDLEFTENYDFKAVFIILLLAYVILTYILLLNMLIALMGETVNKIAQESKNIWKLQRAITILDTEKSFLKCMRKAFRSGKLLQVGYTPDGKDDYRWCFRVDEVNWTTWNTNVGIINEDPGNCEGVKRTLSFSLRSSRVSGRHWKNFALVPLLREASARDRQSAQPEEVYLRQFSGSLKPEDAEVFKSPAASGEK

Ki, < 1000 nM:
CN(C)CCOCc1nc(Nc2ccc(C(F)(F)F)cc2)c2ccc(-c3ncccc3C(F)(F)F)cc2n1 [Compound 87, [2-(2-Dimethylamino-ethoxymethyl)-7-(3-trifluoromethyl-pyridin-2-yl)-quinazolin-4-yl]-(4-trifluoromethyl-phenyl)-amine]
CC(C)S(=O)(=O)c1ccc(Nc2nc(CN3C[C@@H](C)O[C@@H](C)C3)nc3cc(-c4ncccc4C(F)(F)F)cnc23)cc1 [Compound 595, [2-(2,6-Dimethyl-morpholin-4-ylmethyl)-7-(3-trifluoromethyl-pyridin-2-yl)-pyrido[3,2-d]pyrimidin-4-yl]-[4-(propane-2-sulfonyl)-phenyl]-amine (cis)]
COCc1cc(Nc2ccc(S(=O)(=O)C(C)C)cc2)c2ccc(-c3ncccc3C(F)(F)F)nc2n1 [Compound 306, [2-Methoxymethyl-7-(3-trifluoromethyl-pyridin-2-yl)-[1,8]naphthyridin-4-yl]-[4-(propane-2-sulfonyl)-phenyl]-amine]
CC1CCN(C(=O)c2nc(Nc3ccc(C(F)(F)F)cc3)c3ccc(-c4ncccc4C(F)(F)F)nc3n2)CC1 [Compound 462, (4-Methyl-piperidin-1-yl)-[4-(4-trifluoromethyl-phenylamino)-7-(3-trifluoromethyl-pyridin-2-yl)-pyrido[2,3-d]pyrimidin-2-yl]-methanone]
O=C(NCCN1CCOCC1)c1nc(Nc2ccc(C(F)(F)F)cc2)c2ccc(-c3ncccc3C(F)(F)F)cc2n1 [Compound 709, 4-(4-Trifluoromethyl-phenylamino)-7-(3-trifluoromethyl-pyridin-2-yl)-quinazoline-2-carboxylic acid (2-morpholin-4-yl-ethyl)-amide]
C[C@@H]1CN(Cc2nc(Nc3ccc(C(C)(C)C)nc3)c3ncc(-c4ncccc4Cl)cc3n2)C[C@H](C)O1 [Compound 632, (6-tert-Butyl-pyridin-3-yl)-[7-(3-chloro-pyridin-2-yl)-2-(2,6-dimethyl-morpholin-4-ylmethyl)-pyrido[3,2-d]pyrimidin-4-yl]-amine (cis)]
CN1C(C)(C)CC(NC(=O)c2nc(Nc3ccc(C(F)(F)F)cc3)c3ccc(-c4ncccc4C(F)(F)F)nc3n2)CC1(C)C [Compound 447, 4-(4-Trifluoromethyl-phenylamino)-7-(3-trifluoromethyl-pyridin-2-yl)-pyrido[2,3-d]pyrimidine-2-carboxylic acid (1,2,2,6,6-pentamethyl-piperidin-4-yl)-amide]
CC(C)(C)c1ccc(Nc2nc(C(C)(C)CO)nc3cc(-c4ncccc4C(F)(F)F)ccc23)cc1 [Compound 217, 2-[4-(4-tert-Butyl-phenylamino)-7-(3-trifluoromethyl-pyridin-2-yl)-quinazolin-2-yl]-2-methyl-propan-1-ol]
FC(F)(F)c1ccc(Nc2nc(CN3CCN(CCN4CCCC4)CC3)nc3cc(-c4ncccc4C(F)(F)F)ccc23)cc1 [Compound 517, [2-[4-(Pyrrolidin-1-yl-ethyl)-piperazin-1-ylmethyl]-7-(3-trifluoromethyl-pyridin-2-yl)-quinazolin-4-yl]-(4-trifluoromethyl-phenyl)-amine]
COCc1nc(Nc2ccc(C(C)(C)C#N)cc2)c2ccc(-c3ncccc3C(F)(F)F)nc2n1 [Compound 290, 2-{4-[2-Methoxymethyl-7-(3-trifluoromethyl-pyridin-2-yl)-pyrido[2,3-d]pyrimidin-4-ylamino]-phenyl}-2-methyl-propionitrile]
CC(C)N(C)CCc1nc(Nc2ccc(C(F)(F)F)cc2)c2ccc(-c3ncccc3C(F)(F)F)cc2n1 [Compound 421, [2-[(Isopropyl-methyl-amino)-ethyl]-7-(3-trifluoromethyl-pyridin-2-yl)-quinazolin-4-yl]-(4-trifluoromethyl-phenyl)-amine]
COCc1nc(Nc2ccc(S(=O)(=O)C(F)(F)F)cc2)c2ccc(-c3ncccc3C)nc2n1 [Compound 159, [2-Methoxymethyl-7-(3-methyl-pyridin-2-yl)-pyrido[2,3-d]pyrimidin-4-yl]-(4-trifluoromethanesulfonyl-phenyl)-amine]
CC(C)COCc1nc(Nc2ccc(Cl)c(C(F)(F)F)c2)c2ccc(-c3ncccc3C(F)(F)F)nc2n1 [Compound 255, (4-Chloro-3-trifluoromethyl-phenyl)-[2-isobutoxymethyl-7-(3-trifluoromethyl-pyridin-2-yl)-pyrido[2,3-d]pyrimidin-4-yl]-amine]
CN1CCN(CCCc2nc(Nc3ccc(C(F)(F)F)cc3)c3ccc(-c4ncccc4C(F)(F)F)cc3n2)CC1 [Compound 573, [2-[3-(4-Methyl-piperazin-1-yl)-propyl]-7-(3-trifluoromethyl-pyridin-2-yl)-quinazolin-4-yl]-(4-trifluoromethyl-phenyl)-amine]
Cc1cccnc1-c1ccc2c(Nc3ccc(C(C)C)cc3)nc(CN3CCSCC3)nc2c1 [Compound 713, (4-Isopropyl-phenyl)-[7-(3-methyl-pyridin-2-yl)-2-thiomorpholin-4-ylmethyl-quinazolin-4-yl]-amine]
CCCN1CCC(c2nc(Nc3ccc(C(F)(F)F)cc3)c3ccc(-c4ncccc4C(F)(F)F)cc3n2)CC1 [Compound 690, [2-(1-Propyl-piperidin-4-yl)-7-(3-trifluoromethyl-pyridin-2-yl)-quinazolin-4-yl]-(4-trifluoromethyl-phenyl)-amine]
CC(C)S(=O)(=O)c1ccc(Nc2nc(CN3C[C@@H](C)O[C@H](C)C3)nc3cc(-c4ncccc4C(F)(F)F)ccc23)cc1 [Compound 655, (R,R)-[2-(2,6-Dimethyl-morpholin-4-ylmethyl)-7-(3-trifluoromethyl-pyridin-2-yl)-quinazolin-4-yl]-[4-(propane-2-sulfonyl)-phenyl]-amine]
CC(C)(C)c1ccc(Nc2nc(COCc3ccccc3)nc3cc(-c4ncccc4C(F)(F)F)ccc23)cc1 [Compound 43, [2-Benzyloxymethyl-7-(3-trifluoromethyl-pyridin-2-yl)-quinazolin-4-yl]-(4-tert-butyl-phenyl)-amine]
FC(F)(F)c1cccc(Nc2nc(CN3CCOCC3)nc3cc(-c4ncccc4C(F)(F)F)cnc23)n1 [Compound 545, [2-Morpholin-4-ylmethyl-7-(3-trifluoromethyl-pyridin-2-yl)-pyrido[3,2-d]pyrimidin-4-yl]-(6-trifluoromethyl-pyridin-2-yl)-amine]
COc1ccc(Nc2nc(COCC(C)C)nc3nc(-c4ncccc4C(F)(F)F)ccc23)cc1F [Compound 258, (3-Fluoro-4-methoxy-phenyl)-[2-isobutoxymethyl-7-(3-trifluoromethyl-pyridin-2-yl)-pyrido[2,3-d]pyrimidin-4-yl]-amine]
O=S1(=O)CCN(Cc2nc(Nc3ccc(C(F)(F)F)nc3)c3ccc(-c4ncccc4C(F)(F)F)cc3n2)CC1 [Compound 553, [2-(1,1-dioxo-1λ^6-thiomorpholin-4-ylmethyl)-7-(3-trifluoromethyl-pyridin-2-yl)-quinazolin-4-yl]-(6-trifluoromethyl-pyridin-3-yl)-amine]
OCCC1CCN(Cc2nc(Nc3ccc(C(F)(F)F)nc3)c3ccc(-c4ncccc4C(F)(F)F)cc3n2)CC1 [Compound 481, 2-{1-[7-(3-Trifluoromethyl-pyridin-2-yl)-4-(6-trifluoromethyl-pyridin-3-ylamino)-quinazolin-2-ylmethyl]-piperidin-4-yl}-ethanol]
FC(F)(F)c1ccc(Nc2nc(CN3CCC4(CC3)OCCO4)nc3cc(-c4ncccc4C(F)(F)F)ccc23)cn1 [Compound 364, [2-(1,4-Dioxa-8-aza-spiro[4.5]dec-8-ylmethyl)-7-(3-trifluoromethyl-pyridin-2-yl)-quinazolin-4-yl]-(6-trifluoromethyl-pyridin-3-yl)-amine]
CCOCc1nc(Nc2ccc(S(=O)(=O)C(F)(F)F)cc2)c2ccc(-c3ncccc3Cl)nc2n1 [Compound 135, [7-(3-Chloro-pyridin-2-yl)-2-ethoxymethyl-pyrido[2,3-d]pyrimidin-4-yl]-(4-trifluoromethanesulfonyl-phenyl)-amine]
CC(C)COCc1nc(Nc2ccc(C(C)(C)C)cc2)c2ccc(-c3ncccc3C(F)(F)F)nc2n1 [Compound 162, (4-terr-Butyl-phenyl)-[2-isobutoxymethyl-7-(3-trifluoromethyl-pyridin-2-yl)-pyrido[2,3-d]pyrimidin-4-yl]-amine]
COCc1nc(Nc2ccc(C(C)(C)COC)cc2)c2ncc(-c3ncccc3C(F)(F)F)cc2n1 [Compound 58, [4-(2-Methoxy-1,1-dimethyl-ethyl)-phenyl]-[2-methoxymethyl-7-(3-trifluoromethyl-pyridin-2-yl)-pyrido[3,2-d]pyrimidin-4-yl]-amine]
C[C@@H](OCc1nc(Nc2ccc(C(C)(C)C)cc2)c2ccc(-c3ncccc3C(F)(F)F)cc2n1)C(=O)O [Compound 229, (R)-2-[4-(4-tert-Butyl-phenylamino)-7-(3-trifluoromethyl-pyridin-2-yl)-quinazolin-2-ylmethoxy]-propionic acid (chiral)]
OC1CCN(Cc2nc(Nc3ccc(C(F)(F)F)nc3)c3ccc(-c4ncccc4C(F)(F)F)cc3n2)CC1 [Compound 484, 1-[7-(3-Trifluoromethyl-pyridin-2-yl)-4-(6-trifluoromethyl-pyridin-3-ylamino)-quinazolin-2-ylmethyl]-piperidin-4-ol]
CC(C)(C)c1ccc(Nc2nc(CN3CCCC3)nc3cc(-c4ncccc4C(F)(F)F)ccc23)cc1 [Compound 475, (4-tert-Butyl-phenyl)-[2-pyrrolidin-1-ylmethyl-7-(3-trifluoromethyl-pyridin-2-yl)-quinazolin-4-yl]-amine]

Same assay, conditions: Table III; capsaicin receptor binding

Ki, < 1000 nM:
CC1CC(C)CN(Cc2nc(Nc3ccc(C(F)(F)F)nc3)c3ccc(-c4ncccc4C(F)(F)F)cc3n2)C1 (stereo not drawn) [Compound 559, [2-(3,5-Dimethyl-piperidin-1-ylmethyl)-7-(3-trifluoromethyl-pyridin-2-yl)-quinazolin-4-yl]-(6-trifluoromethyl-pyridin-3-yl)-amine]

Reference: patent US20040156869A1, “2-substituted quinazolin-4-ylamine analogues” (Neurogen Corporation, priority 2002, published 2004)
